We go through 16 compounds from patent US11458123B2 (Arvinas, Inc., priority 2016, dated 2022).

In one experiment the test system is tau protein. As to the kind of experiment: Tau protein in vitro degradation assay (Western blot, Tau-13 antibody). The experiment is classed as cell-based, human. The settings on record: SK-N-SH cells; 72 hours of incubation; tested at 300 nM, 100 nM, 33 nM and 11 nM; Western blot, Tau-13 antibody. The method in brief: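 SK-N-SH cells, seeded ≥18 h beforehand, were incubated 72 h with tau PROTACs at 1000, 300 and 100 nM or at 300, 100, 33 and 11 nM. Lysates in protease-inhibitor buffer were resolved by SDS-PAGE; tau quantified by Western blot with Tau-13 antibody recognising all human tau forms.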
For orientation: In western blotting, separated proteins are transferred to a membrane and probed.
For `Cn1c2ccncc2c2ccc(-c3ccc(O[C@H]4C[C@H](OC5CCN(c6cccc(C#CCOc7ccc8c(c7)C(=O)N(C7CCC(=O)NC7=O)C8=O)c6)CC5)C4)nc3)cc21` (stereo partly shown) [Compound 198, 2-(2,6-dioxopiperidin-3-yl)-5-((3-(3-(4-((1r,3r)-3-((5-(5-methyl-5H-pyrido[4,3-b]indol-7-yl)pyridin-2-yl)oxy)cyclobutoxy)piperidin-1-yl)phenyl)prop-2-yn-1-yl)oxy)isoindoline-1,3-dione], the “Degradation activity (tau protein remaining; highest amount of degradation observed at any dosage)” value was “A (≤50% tau protein remaining after 72 hours of incubation with the test compound)”.
Same read-out and setting: as for `Cn1c2ccncc2c2ccc(-c3ccc(O[C@H]4C[C@H](OCC#CCOCCOC5CN(c6ccc7c(c6)C(=O)N(C6CCC(=O)NC6=O)C7=O)C5)C4)nc3)cc21` (stereo partly shown) [Compound 212, 2-(2,6-dioxopiperidin-3-yl)-5-(3-(2-((4-((1r,3r)-3-((5-(5-methyl-5H-pyrido[4,3-b]indol-7-yl)pyridin-2-yl)oxy)cyclobutoxy)but-2-yn-1-yl)oxy)ethoxy)azetidin-1-yl)isoindoline-1,3-dione], the entry is “A (≤50% tau protein remaining after 72 hours of incubation with the test compound)”.
On the same count and under the same terms, for `O=C1CCC(N2C(=O)c3ccc(OCC#Cc4ccc(O[C@H]5C[C@@H](Oc6ccc(-c7ccc8c(c7)[nH]c7ccncc78)cn6)C5)cn4)cc3C2=O)C(=O)N1` (stereo partly shown) [Compound 183, 5-((3-(5-((1s,3 s)-3-((5-(5H-pyrido[4,3-b]indol-7-yl)pyridin-2-yl)oxy)cyclobutoxy)pyridin-2-yl)prop-2-yn-1-yl)oxy)-2-(2,6-dioxopiperidin-3-yl)isoindoline-1,3-dione] the value was “A (≤50% tau protein remaining after 72 hours of incubation with the test compound)”.
As to `Cn1c2ccncc2c2ccc(-c3cnc(OC4CCN(CCCOCCCOC5CN(c6ccc7c(c6)C(=O)N(C6CCC(=O)NC6=O)C7=O)C5)CC4)c(C(F)(F)F)c3)cc21` (stereo not shown) [Compound 130, 2-(2,6-dioxopiperidin-3-yl)-5-(3-(3-(3-(4-((5-(5-methyl-5H-pyrido[4,3-b]indol-7-yl)-3-(trifluoromethyl)pyridin-2-yl)oxy)piperidin-1-yl)propoxy)propoxy)azetidin-1-yl)isoindoline-1,3-dione], the “Degradation activity* (highest amount of degradation observed at any dosage; tau protein remaining)” value is “B (≤80% and >50% tau protein remaining after 72 hours of incubation with the test compound)”.
`Cn1c2ccncc2c2ccc(-c3ccc(OCCOCCOCCOCCOCCOCCOCCOc4ccc5c(c4)C(=O)N(C4CCC(=O)NC4=O)C5=O)nc3)cc21` (stereo not shown) [Compound 132, 2-(2,6-dioxopiperidin-3-yl)-5-((20-((5-(5-methyl-5H-pyrido[4,3-b]indol-7-yl)pyridin-2-yl)oxy)-3,6,9,12,15,18-hexaoxaicosyl)oxy)isoindoline-1,3-dione]: the “Degradation activity* (highest amount of degradation observed at any dosage; tau protein remaining)” value was “A (≤50% tau protein remaining after 72 hours of incubation with the test compound)”.
The same measure, in the same setting: for `O=C1CCC(N2C(=O)c3ccc(OCCCCCOC4CCN(C(=O)[C@H]5C[C@H](Oc6ccc(-c7ccc8c(c7)[nH]c7ccncc78)cn6)C5)CC4)cc3C2=O)C(=O)N1` (stereo partly shown) [Compound 165, 5-((5-((1-((1r,3r)-3-((5-(5H-pyrido[4,3-b]indol-7-yl)pyridin-2-yl)oxy)cyclobutane-1-carbonyl)piperidin-4-yl)oxy)pentyl)oxy)-2-(2,6-dioxopiperidin-3-yl)isoindoline-1,3-dione] the value was “C (>80% tau protein remaining after 72 hours of incubation with the test compound)”; for `Cn1c2ccncc2c2ccc(-c3ccc(OCCCOc4ccc(C#CCCCCOc5ccc6c(c5)C(=O)N(C5CCC(=O)NC5=O)C6=O)cn4)nc3)cc21` (stereo not shown) [Compound 146, 2-(2,6-dioxopiperidin-3-yl)-5-((6-(6-(3-((5-(5-methyl-5H-pyrido[4,3-b]indol-7-yl)pyridin-2-yl)oxy)propoxy)pyridin-3-yl)hex-5-yn-1-yl)oxy)isoindoline-1,3-dione], “C (>80% tau protein remaining after 72 hours of incubation with the test compound)”; for `Cc1ncsc1-c1ccc([C@H](C)NC(=O)[C@@H]2C[C@@H](O)CN2C(=O)[C@@H](NC(=O)COCCOCCOCCOCCOc2ncc(-c3ccc4c(c3)[nH]c3ccncc34)cc2C(F)(F)F)C(C)(C)C)cc1` [Compound 119, (2S,4R)-1-((S)-17-((5-(5H-pyrido[4,3-b]indol-7-yl)-3-(trifluoromethyl)pyridin-2-yl)oxy)-2-(tert-butyl)-4-oxo-6,9,12,15-tetraoxa-3-azaheptadecanoyl)-4-hydroxy-N—((S)-1-(4-(4-methylthiazol-5-yl)phenyl)ethyl)pyrrolidine-2-carboxamide], “C (>80% tau protein remaining after 72 hours of incubation with the test compound)”.
Take `Cn1c2ccncc2c2ccc(-c3ccc(O[C@H]4C[C@H](CN5CC6(CC(OCCCCOc7ccc8c(c7)C(=O)N(C7CCC(=O)NC7=O)C8=O)C6)C5)C4)nc3)cc21` (stereo partly shown) [Compound 135, 2-(2,6-dioxopiperidin-3-yl)-5-(4-((2-(((1r,3r)-3-((5-(5-methyl-5H-pyrido[4,3-b]indol-7-yl)pyridin-2-yl)oxy)cyclobutyl)methyl)-2-azaspiro[3.3]heptan-6-yl)oxy)butoxy)isoindoline-1,3-dione]: the “Degradation activity* (highest amount of degradation observed at any dosage; tau protein remaining)” value was “B (≤80% and >50% tau protein remaining after 72 hours of incubation with the test compound)”.
For the compound `Cn1c2cc(-c3ccc(OCCOCCOCCOCCOCCOc4ccc5c(c4)C(=O)N(C4CCC(=O)NC4=O)C5=O)nc3)ccc2c2cncc(Cl)c21` (stereo not shown) [Compound 195, 5-((14-((5-(4-chloro-5-methyl-5H-pyrido[4,3-b]indol-7-yl)pyridin-2-yl)oxy)-3,6,9,12-tetraoxatetradecyl)oxy)-2-(2,6-dioxopiperidin-3-yl)isoindoline-1,3-dione], the “Degradation activity (tau protein remaining; highest amount of degradation observed at any dosage)” value was “A (≤50% tau protein remaining after 72 hours of incubation with the test compound)”.
Turning to `Cn1c2ccncc2c2ccc(-c3ccc(C(F)(F)COCCCCCOCCCCCCOc4ccc5c(c4)C(=O)N(C4CCC(=O)NC4=O)C5=O)nc3)cc21` (stereo not shown) [Compound 93, 5-((6-((5-(2,2-difluoro-2-(5-(5-methyl-5H-pyrido[4,3-b]indol-7-yl)pyridin-2-yl)ethoxy)pentyl)oxy)hexyl)oxy)-2-(2,6-dioxopiperidin-3-yl)isoindoline-1,3-dione], the “Degradation activity* (highest amount of degradation observed at any dosage; tau protein remaining)” value is “C (>80% tau protein remaining after 72 hours of incubation with the test compound)”.
In the case of `Cn1c2ccncc2c2ccc(-c3ccc(OCCOCCOCCOCCOCCOc4ccc5c(c4)C(=O)N(C4CCC(=O)NC4=O)C5=O)nc3C(F)(F)F)cc21` (stereo not shown) [Compound 143, 2-(2,6-dioxopiperidin-3-yl)-5-((14-((5-(5-methyl-5H-pyrido[4,3-b]indol-7-yl)-6-(trifluoromethyl)pyridin-2-yl)oxy)-3,6,9,12-tetraoxatetradecyl)oxy)isoindoline-1,3-dione], the “Degradation activity* (highest amount of degradation observed at any dosage; tau protein remaining)” value is “B (≤80% and >50% tau protein remaining after 72 hours of incubation with the test compound)”.
Take `Cn1c2ccncc2c2ccc(-c3ccc(OCCCOc4ccc(CCCOC5CN(c6ccc7c(c6)C(=O)N(C6CCC(=O)NC6=O)C7=O)C5)nc4)nc3)cc21` (stereo not shown) [Compound 168, 2-(2,6-dioxopiperidin-3-yl)-5-(3-(3-(5-(3-((5-(5-methyl-5H-pyrido[4,3-b]indol-7-yl)pyridin-2-yl)oxy)propoxy)pyridin-2-yl)propoxy)azetidin-1-yl)isoindoline-1,3-dione]: the “Degradation activity* (highest amount of degradation observed at any dosage; tau protein remaining)” value is “B (≤80% and >50% tau protein remaining after 72 hours of incubation with the test compound)”.
As for `Cn1c2ccncc2c2ccc(-c3ccc(OCCCOc4ccc(C#CCOC5CN(c6ccc7c(c6)C(=O)N(C6CCC(=O)NC6=O)C7=O)C5)nc4)nc3)cc21` (stereo not shown) [Compound 167, 2-(2,6-dioxopiperidin-3-yl)-5-(3-((3-(5-(3-((5-(5-methyl-5H-pyrido[4,3-b]indol-7-yl)pyridin-2-yl)oxy)propoxy)pyridin-2-yl)prop-2-yn-1-yl)oxy)azetidin-1-yl)isoindoline-1,3-dione], the “Degradation activity* (highest amount of degradation observed at any dosage; tau protein remaining)” value is “C (>80% tau protein remaining after 72 hours of incubation with the test compound)”.
The same measure, in the same setting: as for `Cn1c2ccncc2c2ccc(-c3ccc(O[C@H]4C[C@H](OCCCCCCN5CCN(c6ccc7c(c6)C(=O)N(C6CCC(=O)NC6=O)C7=O)CC5C(F)(F)F)C4)nc3)cc21` (stereo partly shown) [Compound 96, 2-(2,6-dioxopiperidin-3-yl)-5-(4-(6-((1r,3r)-3-((5-(5-methyl-5H-pyrido[4,3-b]indol-7-yl)pyridin-2-yl)oxy)cyclobutoxy)hexyl)-3-(trifluoromethyl)piperazin-1-yl)isoindoline-1,3-dione], the entry is “B (≤80% and >50% tau protein remaining after 72 hours of incubation with the test compound)”.

Staying with this experiment, now noted: SK-N-SH cells; 72 hours of incubation; tested at 1000 nM, 300 nM and 100 nM.
For `Cc1ncsc1-c1ccc(CNC(=O)[C@@H]2C[C@@H](O)CN2C(=O)[C@@H](NC(=O)COCCOCCOCC(O)COc2ccc3nc(-c4ccc(N(C)C)cc4)ccc3c2)C(C)(C)C)cc1` (stereo partly drawn) [Compound 43, (2S,4R)-1-((2S)-2-(tert-butyl)-15-((2-(4-(dimethylamino)phenyl)quinolin-6-yl)oxy)-14-hydroxy-4-oxo-6,9,12-trioxa-3-azapentadecanoyl)-4-hydroxy-N-(4-(4-methylthiazol-5-yl)benzyl)pyrrolidine-2-carboxamide], the “Activity* (highest amount of degradation observed at any dosage, as tau protein remaining)” value is “C (>80% tau protein remaining after 72 hours of incubation with the test compound)”.
